Source: EPA's ToxValDB 9.5
Values after ≈ are worked out from the molar mass of the structure shown.

Legend:
Gallus gallus = conditions: oral, diet; for LEL: duration: 35 days
Macromiidae = conditions: acute; duration: 72 hours; growth
Oncorhynchus mykiss = conditions: for LC50: acute, duration: 96 hours, mortality; for NOEC / LOAEL: chronic/long-term; for LOAEL: oral, feed
Danio rerio = conditions: acute; duration: 96 hours; mortality
Anas platyrhynchos = conditions: oral
Lolium perenne = conditions: acute; growth
Bovidae = conditions: oral; for LEL: diet, no effects
Mus musculus = conditions: chronic; duration: 2 years; M/F; B6C3F1; body weight
Meleagris sp. = conditions: subchronic; duration: 84 days; oral; feed; M/F; no effects
Tagia sp. = conditions: for NOEC: chronic/long-term, duration: 56 days
Canidae = conditions: oral, Dog Other; for NOAEL: chronic
Coturnix coturnix = conditions: chronic; duration: 105 days; oral; diet; mortality
Ovis sp. = conditions: oral
Daphnia magna = conditions: chronic/long-term, duration: 21 days
Apis mellifera = conditions: acute; duration: 48 hours; dermal; mortality
Pimephales promelas = conditions: acute; duration: 96 hours; mortality
Sus scrofa = conditions: Not specified
Capra sp. = conditions: subchronic
Colinus virginianus = conditions: reproduction developmental
Bibionidae = conditions: chronic/long-term; duration: 28 days; other
Typhlodromus pyri = experiment: LR50; higher = less toxic; conditions: not reported; mortality
Anatidae = conditions: subchronic; duration: 41 days; oral; feed; M/F; no effects
Homo sapiens = conditions: clinical; duration: 12 weeks; oral; drinking water; M; no effects

O=C([O-])CC[C@@H](C(=O)[O-])N(CC(=O)[O-])CC(=O)[O-].[Na+].[Na+].[Na+].[Na+] [Tetrasodium glutamate diacetate] showed an LEL (Gallus gallus; subchronic, M, Chicken, body weight) of 10000 mg/kg-day, an NOEC (Pontoscolex corethrurus; reproductive, no effects) of 248 mg/kg and an NOAEL (Oryctolagus sp.; reproduction developmental, duration: 21 days, oral, gavage, F, New Zealand, clinical signs) of 20 mg/kg-day. For the same compound, the NOEC (Macromiidae) was 1 mg/L.

O=C1O[C@H]([C@@H](O)CO)C(O)=C1O [L-Ascorbic acid] gave an LC50 (Oncorhynchus mykiss) of 1020 µg/mL (≈ 5790 µM) and an LC50 (Danio rerio) of 32 µg/mL (≈ 182 µM).

Work on CC[C@@]1([C@@H]2O[C@@H]([C@H]3O[C@@](O)(CO)[C@H](C)C[C@@H]3C)C[C@@H]2C)CC[C@H]([C@]2(C)CC[C@]3(C[C@H](O)[C@@H](C)[C@@H]([C@@H](C)[C@@H](OC)[C@H](C)C(=O)[O-])O3)O2)O1.[Na+] [Monensin sodium] yielded an LEL (Gallus gallus; subchronic, M/F, no effects) of 125 mg/kg-day, an NOEL (Anas platyrhynchos; short-term, duration: 8 days, feed, body weight) of 62 mg/kg and an LC50 (Oncorhynchus mykiss) of 1.88 µg/mL. The NOEC (Oncorhynchus mykiss; duration: 50 days, development) was 0.05 mg/L, the NOEC (Lolium perenne) was 2 mg/kg and the LEL (Bovidae; chronic, duration: 160 days, M/F) was 110 mg/kg-day. For the same compound, the LEL (Bovidae; short-term, duration: 28 days, M/F) was 4.5 mg/kg-day, the LD50 (Equus caballus; acute, oral, gavage, mortality) was 1.38 mg/kg and the NOEL (Mus musculus) was 1.2 mg/kg-day. It also gave an LEL (Meleagris sp.) of 100 mg/kg, an NOAEL (Oryctolagus sp.; reproduction developmental) of 0.3 mg/kg-day and an NOEL (Oryctolagus sp.; reproduction developmental, duration: 23 days, oral, gavage, F, body weight) of 0.3 mg/kg-day. The NOEC (Tagia sp.; reproduction) was 50 mg/kg and the NOEL (Canidae; repeat dose other, clinical signs) was 0.345 mg/kg-day.

With ClC1=C(Cl)[C@]2(Cl)[C@@H]3[C@H]4C[C@H]([C@@H]5O[C@H]45)[C@@H]3[C@@]1(Cl)C2(Cl)Cl [Endrin] the NOAEL (Gallus gallus; subchronic, duration: 50 days, mortality) was 1 mg/kg-day, the NOAEL (Anas platyrhynchos; subchronic, duration: 12 weeks, feed, M/F, mortality) was 0.5 mg/kg and the LOAEL (Oncorhynchus mykiss; duration: 163 days, clinical chemistry) was 4.3 µg/kg-day. The LOAEL (Coturnix coturnix) was 0.5 mg/kg-day, the LEL (Bovidae; chronic, duration: 112 days) was 5 mg/kg-day and the NOAEL (Canidae; duration: 18 months, diet, organ weight) was 1 mg/kg-day. It also gave an LEL (Ovis sp.; chronic, duration: 112 days, diet, no effects) of 5 mg/kg-day.

With CCCCCCCCCCO [1-Decanol] the LD50 (Anas platyrhynchos; acute, unspecified, mortality) was over 4640 mg/kg-day, the LC50 (Anas platyrhynchos; short-term, feed, mortality) was over 2550 mg/kg-day and the NOEC (Daphnia magna) was 0.51 mg/L. It also gave an LD50 (Apis mellifera) of over 13.8 µg/piece, an NOEC (Oncorhynchus mykiss; duration: 28 days, growth) of 0.0064 mg/L and an LC50 (Pimephales promelas) of 2.4 µg/mL (≈ 15.2 µM). The LC50 (Tagia sp.; acute, duration: 14 days, mortality) was over 628 mg/kg, the LD50 (Rattus norvegicus; acute, oral, mortality) was 4720 mg/kg-day and the NOAEL (Rattus norvegicus; reproduction developmental, no effects) was 1000 mg/kg-day.

Cn1cnc2c1c(=O)[nH]c(=O)n2C [Theobromine] gave an LEL (Equus caballus; acute, no effects) of 0.5 mg/kg, an NOAEL (Oryctolagus sp.; developmental, development) of 21 mg/kg-day and an NOAEL (Sus scrofa; subchronic, oral, diet, growth) of 7 mg/kg-day. It also gave an NOAEL (Ovis sp.; subchronic, duration: 3 months, diet, food consumption) of 35 mg/kg-day and an LEL (Capra sp.; duration: 56 days, food consumption) of 300 mg/kg-day.

For CC(C)C1(C)N=C(c2nc3ccccc3cc2C(=O)O)NC1=O (centres undefined) [Imazaquin], the NOEC (Daphnia magna; reproduction) was 100 mg/L, the NOEC (Oncorhynchus mykiss; duration: 28 days, growth) was 51.2 mg/L and the NOEC (Colinus virginianus) was 16.6 mg/kg-day. It also gave an NOEC (Bibionidae) of 228 mg/kg, an NOAEL (Oryctolagus sp.; reproduction developmental, mortality) of 250 mg/kg-day and an NOEC (Tagia sp.) of 0.0275 mg/kg. The NOAEL (Canidae; duration: 1 years, clinical signs) was 25 mg/kg-day and the LR50 (Typhlodromus pyri) was over 4 g/ha.

Compound Cc1cc2c(C(C)C)c(O)c(O)c(C=O)c2c(O)c1-c1c(C)cc2c(C(C)C)c(O)c(O)c(C=O)c2c1O [Gossypol] has an NOAEL (Gallus gallus; short-term, duration: 20 days, histopathology: nonneoplastic) of 20 mg/kg-day, an LOAEL (Oncorhynchus mykiss; duration: 10 months, F, development) of 140 mg/kg and an LEL (Oryctolagus sp.; subchronic, duration: 8 weeks, oral, gavage, M, New Zealand, clinical chemistry) of 4 mg/kg-day. For the same compound, the NOAEL (Sus scrofa; repeat dose other, organ weight) was 3 mg/kg-day, the LEL (Canidae; repeat dose other, diet, mortality) was 5 mg/kg-day and the LOAEL (Ovis sp.; subchronic, duration: 30 days, capsule, gross pathology) was 3 mg/kg-day. For the same compound, the LEL (Capra sp.; duration: 90 days, oral, feed, growth) was at least 15 mg/kg-day.

Compound CC[C@@H](C(=O)O)[C@@H]1O[C@@H]([C@@H](C)[C@H](O)[C@H](C)C(=O)[C@H](CC)[C@H]2O[C@]3(C=C[C@@H](O)[C@]4(CC[C@@](C)([C@H]5CC[C@](O)(CC)[C@H](C)O5)O4)O3)[C@H](C)C[C@@H]2C)[C@@H](C)C[C@@H]1C [Narasin] has an LC50 (Oncorhynchus mykiss) of 2.23 µg/mL (≈ 2.91 µM), an NOEC (Pontoscolex corethrurus; acute, duration: 7 days, body weight) of 4.3 mg/kg and an NOEL (Bovidae; short-term, duration: 14 days, gavage, F, clinical signs) of 0.5 mg/kg-day. The LEL (Equus caballus; short-term, duration: 1 months, oral, feed, M/F, food consumption) was 80 mg/kg, the LEL (Anatidae) was 280 mg/kg and the LEL (Oryctolagus sp.; acute, Hungarian, clinical signs) was at least 35 mg/kg-day. The NOAEL (Canidae; duration: 1 years, capsule, M/F, histopathology: nonneoplastic) was 0.5 mg/kg-day.

With [O-][Cl+2]([O-])[O-] [Chlorate] the NOEL (Homo sapiens) was 0.036 mg/kg-day.
